Reference: PMC5340622 (Cancer discovery, 2016)

Key:
[1] = tested on: WT and mutant cell lines (MCF7); experiment: Proliferation of WT and mutant ER MCF7 cell lines with other SERDs; assay type: cell-based; details: WT and all mutant cell lines
in vivo = details: mouse, serum, other: AZD9496 oral (gavage); fulvestrant subcutaneous
MCF7 WT cells = experiment: Proliferation assay; assay type: cell-based; details: Homo sapiens, MCF7, read-out: IC50, growth inhibition
[2] = tested on: MCF7 inducible HA-ER E380Q tumors; experiment: MCF7 inducible HA-ER E380Q xenograft; assay type: in vivo, mice; details: fulvestrant 200mg/kg twice weekly s.c.
[3] = tested on: MCF7 inducible HA-ER S463P tumors; experiment: MCF7 inducible HA-ER S463P xenograft; assay type: in vivo, mice; details: fulvestrant 200mg/kg twice weekly s.c.
E380Q mutant ER = experiment: ERE-luciferase inhibition, doxycycline-induced E380Q ER in MCF7 cells; assay type: cell-based; details: MCF7, regular medium
S463P mutant ER = experiment: ERE-luciferase inhibition, doxycycline-induced S463P ER in MCF7 cells; assay type: cell-based; details: MCF7, regular medium
[4] = tested on: MCF7 inducible HA-ER WT tumors; experiment: MCF7 inducible HA-ER WT xenograft; assay type: in vivo, mice; details: fulvestrant 200mg/kg twice weekly s.c.

SMILES | inhibition of cell proliferation [1] | AUC (in vivo) | Cmax (in vivo) | IC50 (MCF7 WT cells) | tumor growth inhibition [2] | tumor growth inhibition [3] | fold higher IC99 as compared to WT (E380Q mutant ER) | fold higher IC99 as compared to WT (S463P mutant ER) | tumor growth inhibition [4]
C[C@@H]1Cc2c([nH]c3ccccc23)[C@@H](c2c(F)cc(/C=C/C(=O)O)cc2F)N1CC(C)(C)F [AZD9496, (E)-3-(3,5-Difluoro-4-((1R,3R)-2-(2-fluoro-2-methylpropyl)-3-methyl-2,3,4,9-tetra hydro-1H–pyrido[3,4-b]indol-1-yl)phenyl)acrylic Acid] | capable of inhibiting cell proliferation by all mutants | 218 µM·h | 59 µM | 0.4 nM |  |  |  |  | 
CC/C(=C(/c1ccc(/C=C/C(=O)O)cc1)c1ccc2[nH]ncc2c1)c1ccc(F)cc1Cl [GDC-0810] | capable of inhibiting cell proliferation by all mutants |  |  |  |  |  |  |  | 
C[C@]12C[C@H](c3ccc(OCCCCCS(=O)(=O)CCCC(F)(F)C(F)(F)F)cc3)[C@@H]3c4ccc(O)cc4CC[C@H]3[C@@H]1CC[C@@H]2O [RU58668] | capable of inhibiting cell proliferation by all mutants |  |  |  |  |  |  |  | 
C[C@]12CC[C@@H]3c4ccc(O)cc4C[C@@H](CCCCCCCCC[S+]([O-])CCCC(F)(F)C(F)(F)F)[C@H]3[C@@H]1CC[C@@H]2O (some centres unmarked) [fulvestrant] |  | 5.29 µM·h | 0.65 µM | 0.4 nM | fully inhibited the growth | fully inhibited the growth | 2 fold | 2 fold | fully inhibited the growth
